This note sets out measurements from patent US20130281449A1, “Oxazine Derivatives and their Use in the Treatment of Neurological Disorders” (NOVARTIS AG, priority 2011, published 2013).

The target in one assay is Human BACE-1 (Homo sapiens, UniProt P56817). The assay can be described thus: Test 1: Inhibition of Human BACE-1. The format is biochemical. Particulars: mean IC50 values in Test 1; recombinant BACE-1, pH 4.5. As to the method: Test 1: Inhibition of Human BACE-1
IC50 values are calculated from percentage of inhibition of BACE-1 activity as a function of the test compound concentration.

Assay [1] has as its system Cellular Release of Amyloid Peptide 1-40. The assay can be described thus: Test 4: Inhibition of Cellular Release of Amyloid Peptide 1-40. The format is cell-based, Chinese hamster. Particulars: Cricetulus griseus, 24 h; read-out: Amyloid-β1-40 release IC50. As for the experimental part: Chinese hamster ovary cells are transfected with the human gene for amyloid precursor protein. The cells are plated at a density of 8000 cells/well into 96-well microtiter plates and cultivated for 24 hours in DMEM cell culture medium containing 10% FCS. The test compound is added to the cells at various concentrations, and the cells are cultivated for 24 hours in the presence of the test compound. […] The potency of the compound is calculated from the percentage of inhibition of amyloid peptide release as a function of the test compound concentration.

SMILES strings stand for the structures.

Chain of Human BACE-1 (P56817 46-457 limits assumed): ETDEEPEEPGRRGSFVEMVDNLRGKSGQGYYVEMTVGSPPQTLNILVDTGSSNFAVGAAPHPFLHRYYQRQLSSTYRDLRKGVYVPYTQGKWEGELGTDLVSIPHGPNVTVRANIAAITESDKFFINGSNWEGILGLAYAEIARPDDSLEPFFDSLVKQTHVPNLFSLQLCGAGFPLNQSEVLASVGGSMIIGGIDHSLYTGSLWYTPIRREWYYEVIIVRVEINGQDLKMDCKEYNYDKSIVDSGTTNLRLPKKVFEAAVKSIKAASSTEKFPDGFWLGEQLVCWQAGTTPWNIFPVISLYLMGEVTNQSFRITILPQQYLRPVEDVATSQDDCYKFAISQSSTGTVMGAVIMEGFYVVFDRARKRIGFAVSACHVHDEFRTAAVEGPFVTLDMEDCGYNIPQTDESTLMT

In general, IC50 refers to the concentration that gives 50% inhibition. On to `N#Cc1cnc(C(=O)Nc2ccc(F)c([C@]3(CF)COC(CF)(CF)C(N)=N3)c2)c(Cl)c1` [Example 43, 3-Chloro-5-cyano-pyridine-2-carboxylic acid [3-((R)-5-amino-3,6,6-tris-fluoromethyl-3,6-dihydro-2H-[1,4]oxazin-3-yl)-4-fluoro-phenyl]-amide], for which the figures for the IC50 (on Human BACE-1; in assay [1]) were 24 nM and 22 nM, respectively.
The corresponding values for `COc1ccc(C(=O)Nc2ccc(F)c([C@]3(C)CO[C@@](C)(C(F)(F)F)C(N)=N3)c2)c(N)n1` [Example 44, 2-Amino-N-[3-((3R,6R)-5-amino-3,6-dimethyl-6-trifluoromethyl-3,6-dihydro-2H-[1,4]oxazin-3-yl)-4-fluoro-phenyl]-6-methoxy-nicotinamide] are 220 nM and 79 nM.
Consider `COc1ccc(C(=O)Nc2ccc(F)c([C@]3(C)CO[C@@](C)(C(F)(F)F)C(N)=N3)c2)c(Cl)n1` [Example 45, N-[3-((3R,6R)-5-Amino-3,6-dimethyl-6-trifluoromethyl-3,6-dihydro-2H-[1,4]oxazin-3-yl)-4-fluoro-phenyl]-2-chloro-6-methoxy-nicotinamide], for which the IC50 turned out to be 2600 nM at Human BACE-1 and 720 nM in assay [1].
